# Reference: patent US10947254B2, “Methods for treating ulcerative colitis using 3-((1R,3s,5S)-3-((7-((5-methyl-1H-pyrazol-3-yl)amino)-1,6-naphthyridin-5-yl)amino)-8-azabicyclo[3.2.1]octan-8-yl)propanenitrile” (priority 2015, dated 2021)
# Assays:
# [1] = system: splenic NK, B and T cells; assay: Immunosuppression effects in mouse splenic natural killer (NK) cells; assay type: in vivo, Balb/C mice; details: mice, three days
# Protocol: Adult male Balb/C mice (12-14 weeks of age) from Harlan were used for the study. […] Spleens were harvested 1 or 2 h post last dose and crushed immediately for cell subtype staining. Prior to fixation, fluorophore-labelled antibodies for CD19 (FITC; B cells), CD3e (PE; pan T cells) and DX5 (APC; NK cells) were incubated with splenocyte samples from each animal to allow for simultaneous, multiple subtype % analysis on the flow cytometer. The number of total spleen cells for each animal was measured by Scepter™ 2.0 Handheld Automated Cell Counter. The absolute number of lymphocyte subtype population (e.g., splenic B, T and NK cells) was calculated from the percentage of each subtype times total spleen cells for each animal. A one way ANOVA, with Dunnett's post hoc test, was used to compare the splenic lymphocytes number of the vehicle and test compound groups. The a level was set at p<0.05. Data were presented as the mean±SEM for each group.
# [2] = First in human study of safety, tolerability and pharmacokinetics in healthy subjects; assay type: in vivo; details: by comparison to other orally administered compounds
# Protocol: Assay 9: First in Human Study to Evaluate the Safety, Tolerability and Pharmacokinetics in Healthy Subjects
# The compound of Example 1 was evaluated in a double-blinded, randomized, placebo-controlled, single ascending dose (SAD) and multiple ascending dose (MAD) study of safety, tolerability, and pharmacokinetics in healthy subjects. Pharmacokinetic samples were collected up to 72 hours post the final dose in both the SAD study (after the first dose) and MAD study (after 14 days of once-daily dosing). The SAD study enrolled 5 cohorts and the MAD study enrolled 4 cohorts totaling 72 subjects, of which 71 completed the dosing period.
# Plasma pharmacokinetic (PK) parameters were determined by non-compartmental analysis using WinNonLin Version 6.4.0 (Pharsight, St Louis, Mo.). The plasma PK parameter presented here is:
# Cmax: Maximum Concentration in Plasma
# [3] = system: oxazolone-induced colitis; assay: Mouse model of oxazolone-induced colitis; assay type: in vivo, BALB/C mice; details: mice
# Protocol: Assay 7: Mouse Model of Oxazalone-Induced Colitis
# Oxazolone-induced colitis is an experimental model that has a histological resemblance to human ulcerative colitis (Heller et al. Immunology, 2002, 17, 629-638). Adult BALB/C mice from Harlan were used in the assay. On day 1, animals were lightly anesthetized with isoflurane and the hairs between the shoulder were carefully removed before oxazolone (4%, 150 μL, 4:1 acetone:olive oil formulation) or vehicle solution was slowly applied for skin sensitization. Seven days after skin sensitization, the mice were fasted overnight, anesthetized with isoflurane inhalation, and a 1 mL syringe equipped with a 3.5-F catheter, filled with oxazolone solution, was inserted carefully about 4 cm into the colon of the mouse. Following insertion, 50 μL of the oxazolone solution (1%, 1:1 ethanol:water formulation) was injected very slowly (over 30 sec using an injection pump) into the colon. The catheter was removed and the mice were held vertically (head down) for 2 min to ensure that the entire oxazolone solution remained inside the colon. Drug treatment (PO, BID or TID) or vehicle was initiated a day prior to the oxazolone intrarectal (IR) challenge. Two-day post oxazolone intrarectal challenge, the Disease Activity Index (DAI) was assessed by treatment-blinded experimenters for each mouse according to the criteria score: stool consistency score (0, normal; 2, loose; 4, diarrhea), gross bleeding score (0, absence; 2, blood tinged; 4, presence), and weight loss score (0, none; 1, 1%-5%; 2, 5%-10%; 3, 10%-20%; 4, more than 20%); DAI=average of (stool consistency score+gross bleeding score+weight loss score).
# Selected compounds of the invention were tested in the assay. Efficacy in the model is evidenced by a decrease in DAI score as compared with the score from vehicle treated animals.
# [4] = Pharmacokinetics in plasma and the GI tract in rats; assay type: in vivo, Sprague Dawley rats; details: oral dosing in preclinical species
# Protocol: Assay 6: Pharmacokinetics in Plasma and the GI Tract in Rats and Dogs A test compound was dosed to male Sprague Dawley rats (n=3) as described in Assay 5. […] At all time points, the plasma concentration was below the limit of quantitation of 0.001 μg/mL.
smiles,measurement,setting,value
"Cc1cc(Nc2cc3ncccc3c(N[C@@H]3C[C@H]4CC[C@@H](C3)N4CCC#N)n2)n[nH]1 [Example 1, 3-((1R,3s,5S)-3-((7-((5-methyl-1H-pyrazol-3-yl)amino)-1,6-naphthyridin-5-yl)amino)-8-azabicyclo[3.2.1]octan-8-yl)propanenitrile]",splenic NK cell counts,[1]; PO BID doses up to 100 mg/kg,unaffected
same,treatment effect on B and T cell populations,[1]; PO BID,No treatment effect
same,oral bioavailability,[2],very low
same,activity in the oxazolone-induced colitis model,[3],demonstrated activity
same,decrease in DAI score as compared with vehicle treated animals,"[3]; PO, 1, 3, and/or 10 mg/kg BID (doses up to 10 mg/kg BID)",statistically significant decrease
same,exposure throughout the gastrointestinal tract vs exposure in plasma,[4],significantly higher exposure
